Columns and labels:
Assay type in all cases: biochemical
[1] = target: E. coli respiratory complex I (proton-pumping NADH:ubiquinone oxidoreductase, NuoA to NuoN) (Escherichia coli, UniProt P0AFC7+P0AFD4+P33599, P33599:D325E)
[2] = target: E. coli respiratory complex I (proton-pumping NADH:ubiquinone oxidoreductase, NuoA to NuoN) (Escherichia coli, UniProt P0AFC7+P0AFD4+P33599, P33599:D325N)
[3] = target: E. coli respiratory complex I (proton-pumping NADH:ubiquinone oxidoreductase, NuoA to NuoN) (Escherichia coli, UniProt P0AFC7+P0AFD4+P33599, P33599:D325Q)
[4] = target: E. coli respiratory complex I (proton-pumping NADH:ubiquinone oxidoreductase, NuoA to NuoN) (Escherichia coli, UniProt P0AFC7+P0AFD4+P33599)
[5] = target: E. coli respiratory complex I (proton-pumping NADH:ubiquinone oxidoreductase, NuoA to NuoN) (Escherichia coli, UniProt P0AFC7+P0AFD4+P33599, P33599:D325A)

## C/C=C(\C)[C@H](O)[C@H](C)/C=C(C)/C=C/C/C(C)=C/Cc1nc(OC)c(OC)c(O)c1C [piericidin A]
[1]
  IC50: 6.2 ± 0.5 µM
[2]
  IC50: 17.4 ± 0.6 µM
[3]
  IC50: 16.9 ± 1.2 µM
[4]
  IC50: 3.5 ± 0.2 µM
[5]
  IC50: 9.3 ± 0.8 µM
